One experiment deals with T1, Yersinia PTPase (Yersinia enterocolitica, UniProt P15273).
T1 construct: purchased Calbiochem
In words: biochemical. The experiment is classed as biochemical.

Experiment [1] deals with T2, PTP1B (Homo sapiens, UniProt P18031).
T2 construct: purchased Calbiochem
T2 sequence (P18031 1-435): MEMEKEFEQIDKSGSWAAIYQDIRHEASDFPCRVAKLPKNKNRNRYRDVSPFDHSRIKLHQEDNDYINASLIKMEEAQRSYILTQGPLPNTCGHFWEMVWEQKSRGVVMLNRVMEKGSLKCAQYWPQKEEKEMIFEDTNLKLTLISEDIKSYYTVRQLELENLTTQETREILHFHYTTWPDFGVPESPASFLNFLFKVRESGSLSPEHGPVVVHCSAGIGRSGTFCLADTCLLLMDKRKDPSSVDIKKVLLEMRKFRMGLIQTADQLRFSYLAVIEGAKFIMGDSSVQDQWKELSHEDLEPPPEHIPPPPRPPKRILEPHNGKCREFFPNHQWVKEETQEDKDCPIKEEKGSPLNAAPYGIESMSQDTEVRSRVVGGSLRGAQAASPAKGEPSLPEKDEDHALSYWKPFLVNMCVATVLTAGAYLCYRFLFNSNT
Kind of experiment: PTP1B assay (p-NPP hydrolysis, UV at 420 nm). It is filed as biochemical. Particulars: 100 mM acetate pH 5.5, 10% DMSO; read-out: Km of substrate, PTP1B. As to the method: PTP1B Assay: PTP1B (purchased from Calbiochem) was assayed usingp-NPP as the substrate and the reaction progress was monitored by UV spectroscopy. Initial rates were determined by monitoring the hydrolysis of p-NPP at 420 nm, from 10 to 120 s after mixing. Assay solutions contained 1.2 mM substrate, 1 mM EDTA, 100 mM NaCl, and 100 mM acetate at pH 5.5, and 10% DMSO. IC50 values were calculated using a Dixon analysis. Data analysis was performed with the commercial graphing package Grafit (Erithacus Software Ltd.).

In the next experiment the target is T3, LAR PTPase (Homo sapiens, UniProt P10586).
T3 construct: purchased Calbiochem
T3 sequence (P10586 1301-1639 limits assumed): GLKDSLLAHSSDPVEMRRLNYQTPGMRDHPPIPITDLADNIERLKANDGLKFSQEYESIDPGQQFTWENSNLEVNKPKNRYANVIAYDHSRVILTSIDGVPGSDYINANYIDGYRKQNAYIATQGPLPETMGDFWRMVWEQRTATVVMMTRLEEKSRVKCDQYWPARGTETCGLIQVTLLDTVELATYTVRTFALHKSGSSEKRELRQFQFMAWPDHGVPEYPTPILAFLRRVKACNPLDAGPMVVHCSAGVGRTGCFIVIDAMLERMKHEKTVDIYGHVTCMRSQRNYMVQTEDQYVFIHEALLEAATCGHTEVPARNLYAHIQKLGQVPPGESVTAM
In words: LAR PTPase assay (p-NPP hydrolysis, UV at 420 nm). It is filed as biochemical. Particulars: 100 mM acetate pH 5.5, 10% DMSO; read-out: Km of substrate, LAR.

The target in experiment [2] is T2, PTP1B. Particulars: absence of DMSO, acetate buffer pH 5.5; reference 1; read-out: Km of substrate, PTP1B (reported); cited from earlier work.

Each structure is given as a SMILES string. Read-outs that look alike come from different tables or passages of the source.

The values that follow come from patent publication US20030120073A1, “Alpha-ketocarboxylic acid based inhibitors of phosphoryl tyrosine phosphatases” (priority 2001, published 2003).

T1 sequence (P15273 whole entry): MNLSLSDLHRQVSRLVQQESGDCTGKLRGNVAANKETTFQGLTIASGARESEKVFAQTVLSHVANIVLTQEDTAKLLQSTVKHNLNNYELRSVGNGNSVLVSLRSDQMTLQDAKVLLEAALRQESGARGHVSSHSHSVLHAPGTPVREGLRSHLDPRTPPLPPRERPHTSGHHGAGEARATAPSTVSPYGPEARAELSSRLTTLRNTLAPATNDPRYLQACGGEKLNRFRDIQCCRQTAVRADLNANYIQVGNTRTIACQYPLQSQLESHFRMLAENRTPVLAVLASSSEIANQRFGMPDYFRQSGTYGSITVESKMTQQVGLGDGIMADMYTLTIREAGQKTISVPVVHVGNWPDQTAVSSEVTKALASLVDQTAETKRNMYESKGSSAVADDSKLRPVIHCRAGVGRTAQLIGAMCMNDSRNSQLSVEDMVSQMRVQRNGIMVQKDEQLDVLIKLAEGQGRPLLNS

With `O=C(O)C(=O)c1ccc(O)cc1` [Compound 27], half-maximal inhibition against Yersinia PTPase (IC50) required 200 ± 20 µM.

With `O=[N+]([O-])c1ccc(OP(=O)(O)O)cc1` [p-NPP], the Km (in general, the concentration of substrate that gives half-maximal velocity) on Yersinia PTPase (pH 5.5, read-out: Km of substrate, Yersinia PTPase) was 2500 µM; at PTP1B [1] it was 620 µM; on LAR PTPase it was 2100 µM; on PTP1B [2], 750 µM.

Take `O=C(O)C(=O)c1ccccc1` [Compound 1]: inhibition on Yersinia PTPase was half-maximal at 2700 µM (IC50).

In the case of `O=C(O)C(=O)c1ccco1` [Compound 11], affinity on Yersinia PTPase was put at a Ki of 79 µM.

Regarding `O=C(O)C(=O)c1c[nH]c2ccccc12` [Compound 8], on Yersinia PTPase, the IC50 (usually the concentration at which inhibition is half-maximal) turned out to be 390 µM.

The molecule `COc1ccc(C(=O)C(=O)O)cc1` [Compound 10] returned an IC50 against Yersinia PTPase of 150 µM.
